According to patent US11208478B2, “Methods of detecting and treating a tumor expressing pT346 PDK1” (The Wistar Institute of Anatomy and Biology, priority 2016, dated 2021):

How the values were obtained:
Type in all cases: cell-based, Human
[1] = tested on: mitochondrial Akt; assay: Akt recruitment to mitochondria in hypoxia, subcellular fractions by Western blotting; details: PC3 cells, 17-AAG 5 μM for 6 hr, NAC 1 mM, MitoTempo 25 μM
Experimental: FIG. 1 illustrates mitochondrial phosphoproteome in hypoxia. A: Phosphoproteome of prostate adenocarcinoma PC3 cells in hypoxia versus normoxia. Identified phosphosites met a minimum MaxQuant localization probability of 0.75 and a score difference of 5. Fold changes were calculated from the normalized Heavy/Light SILAC ratio. Six Akt target proteins showing increased phosphorylation in hypoxia are indicated. […] B: Ingenuity pathway analysis of mitochondrial phospho- and global proteome in hypoxia. […] D: PC3 cells in normoxia (N) or hypoxia (H) were fractionated in cytosol (Cyto) or mitochondrial (Mito) extracts and analyzed by Western blotting. pAkt, phosphorylated Akt (Ser473). TCE, total cell extracts. E: PC3 cells in hypoxia (H) were exposed to reoxygenation (O2) for the indicated time intervals and analyzed by Western blotting. N, normoxia. F: The indicated subcellular fractions isolated from normoxic (N) or hypoxic (H) PC3 cells were analyzed with an antibody to the Akt consensus phosphorylation site RxRxxS/T (Akt cons Ab) by Western blotting. Mito Sup, supernatant of mitochondrial extracts after preclearing with Akt cons Ab. G: PC3 cells in normoxia (N) or hypoxia (H) were treated with vehicle (Veh) or Hsp90 small molecule inhibitor 17-AAG (5 μM for 6 hr), and cytosolic (Cyto) or mitochondrial (Mito) extracts were analyzed by Western blotting. H: PC3 cells in normoxia (N) or hypoxia (H) were treated with vehicle (Veh), the antioxidant N-acetyl cysteine (NAC, 1 mM) or mitochondria-specific ROS scavenger, MitoTempo (MT, 25 μM), and subcellular fractions were analyzed by Western blotting. See also FIG. 9.
Human prostate adenocarcinoma PC3 and DU145, glioblastoma (GBM) LN229, and breast adenocarcinoma MCF-7 or MDA-231 cells were obtained from the American Type Culture Collection (ATCC, Manassas, Va.), and maintained in culture according to the supplier's specifications. Hypoxic treatment was carried out using an enclosed chamber (BioSpherix) flushed with a nitrogen and CO2 gas. […]

[2] = tested on: PC3 cells; assay: Cell cycle: DNA content by propidium iodide staining and flow cytometry; details: hypoxia, DCA 10 mM, MK2206 5 μM
From the text: FIG. 13, related to FIG. 5, illustrates additional data regarding mitochondrial Akt signaling supports tumor growth in hypoxia in vivo. A: Human intracranial GBM samples (U251 cells) grown in immunocompromised mice were harvested at the indicated time intervals after stereotactic injection, and the number of mitotic cells was quantified. HPF, high-power microscopy field (n=6-7). Mean±SEM. *, p=0.01. B: Human intracranial GBM samples as in (A) were harvested at day 20 after stereotactic injection of U251 cells in immunocompromised mice, and analyzed for expression of HIF1α, phosphorylated PDK1 (pT346 Ab) or phosphorylated PDHE1α by immunohistochemistry. H&E, hematoxylin and eosin. Yellow lines were used to delineate the tumor mass within mice brain. Scale bar, 100 μm. […] C: Quantification of mitotic cells expressing phosphorylated PDK1 (pT346 Ab) in intracranial GBM harvested from immunocompromised mice at the indicated time intervals (n=5-7). […] D: Intracranial GBM samples as in (A) were analyzed for correlation between HIF1α luciferase activity and the number of PDK1-phosphorylated mitotic cells (pT346 Ab). […], 95% C.I.=0.1-0.9; p=0.02. […] E: PC3 cells in normoxia (N) or hypoxia (H) were treated with vehicle (Veh) or small molecule antagonists of PDK1 (DCA, 10 mM) or Akt (MK2206, 5 μM) and analyzed for DNA content by propidium iodide staining and flow cytometry. […]

[3] = tested on: cleaved caspase 3; assay: Cleaved caspase 3 by Western blotting; details: PC3 cells, hypoxia; MK2206 1 μM, PX-866 10 μM
Experimental: FIG. 6 illustrates mitochondrial Akt regulation of stress signaling in hypoxia. A and B: PC3 cells in normoxia (N) or hypoxia (H) were treated with vehicle (Veh) or MK2206 (1 μM) (A) or transduced with pLKO or PDK1-directed shRNA (B) and analyzed for ROS production by CELLROX Green staining and flow cytometry. Upper panels, representative tracings. Bottom panels, quantification of ROS production under the various conditions tested (n=2). Mean±SD for both datasets. *, p=0.01-0.02; **, p=0.004; ns, not significant. C: The experimental conditions are as in (A) and treated cells were analyzed for cell viability by direct cell counting relative to control (n=3). Mean±SEM. ***, p<0.0001. D: PC3 cells in normoxia (N) or hypoxia (H) were incubated with vehicle (Veh) or small molecule inhibitors of Akt (MK2206, 1 μM) or PI3K (PX-866, 10 μM) and analyzed by Western blotting. E: PC3 cells stably silenced for PDK1 were reconstituted with vector, WT PDK1 or T346A PDK1 mutant and analyzed for cell viability by direct cell counting relative to control (n=3). Mean±SEM. ***, p=0.0002. F and G: PC3 cells in normoxia (N) or hypoxia (H) were transduced with pLKO or PDK1-directed shRNA (F) or control siRNA (Ctrl) or Akt1- or Akt2-directed siRNA (G), and analyzed by Western blotting. […] For all panels, data were analyzed using the two-sided unpaired Student's t test. […]

| SMILES | accumulation / recruitment of Akt to mitochondria [1] | further results |
| --- | --- | --- |
| C=CCNC1=C2C[C@@H](C)C[C@H](OC)[C@H](O)[C@@H](C)/C=C(\C)[C@H](OC(N)=O)[C@@H](OC)/C=C\C=C(/C)C(=O)NC(=CC1=O)C2=O [17-AAG, 17-allylaminogeldanamycin] | prevented the accumulation of mitochondrial Akt |  |
| O=C([O-])C(Cl)Cl.[Na+] [DCA, sodium dichloroacetate] |  | S-phase progression [2]: suppressed S-phase progression; population of tumor cells in G1/sub-G1 phase [2]: increased |
| CC1(C)CC(NC(=O)C[P+](c2ccccc2)(c2ccccc2)c2ccccc2)CC(C)(C)N1[O] [MitoTempo] | inhibited Akt recruitment to mitochondria |  |
| CC(=O)N[C@@H](CS)C(=O)O [NAC, N-acetyl cysteine] | no effect |  |
| C=CCN(/C=C1/C(=O)O[C@H](COC)[C@@]2(C)C1=C(O)C(=O)C1=C2[C@H](OC(C)=O)C[C@]2(C)C(=O)CC[C@@H]12)CC=C [PX-866] |  | cleaved caspase 3 (marker of apoptosis) [3]: did not result in caspase activation |
